Test results as given in publication PMC4841451 (Journal of medicinal chemistry, 2016).

Key:
[1] = system: pErk1/2 (MEK1 activity) in A549 and D54 cells; test: Western blot of pERK1/2 in cultured tumor cells; format: cell-based, human; details: both cell lines (A549, D54), 1 h treatment
[2] = system: pAkt (PI3K activity) in A549 and D54 cells; test: Western blot of pAKT in cultured tumor cells; format: cell-based, human; details: 1 h treatment; for PI3K inhibition in cells (Western blot): both cell lines (A549, D54); for PI3K activity, level of pAKT (Western blot): cultured A549 cells
A549 lung tumor cells = test: Cell viability, AlamarBlue assay, A549; format: cell-based, human; details: 48 h
D54 glioma cells = test: Cell viability, AlamarBlue assay, D54; format: cell-based; details: 48 h
[3] = system: tumor ERK1/2 phosphorylation; test: In vivo MEK1 inhibition in tumor bearing mice
[4] = system: tumor Akt phosphorylation; test: In vivo PI3K inhibition in tumor bearing mice
[5] = 375 mg/kg oral gavage, 2 h prior to sacrifice, D54 and A549 flank tumors
[6] = preliminary experiment, A549 and D54 tumors, data not shown

Compound	inhibition of MEK activity in cells (Western blot) [1]	PI3K inhibition in cells (Western blot) [2]	PI3K activity, level of pAKT (Western blot) [2]	cell viability (A549 lung tumor cells)	cell viability (D54 glioma cells)	phosphorylation of ERK1/2 in excised tumor tissue [3, 5]	phosphorylation of Akt in excised tumor tissue [4, 5]	ERK1/2 levels in mouse tumors [3, 6]	pAkt levels in mouse tumors [4, 6]
O=C(NOCCOCCOCCOCCN1CCN(c2nc(N3CCOCC3)nc(-n3c(C(F)F)nc4ccccc43)n2)CC1)c1ccc(F)c(F)c1Nc1ccc(I)cc1F [Compound 14, N-(2-(2-(2-(2-(4-(4-(2-(Difluoromethyl)-1H-benzo[d]imidazol-1-yl)-6-morpholino-1,3,5-triazin-2-yl)piperazin-1-yl)ethoxy)-ethoxy)ethoxy)ethoxy)-3,4-difluoro-2-((2-fluoro-4-iodophenyl)amino)benzamide]	most pronounced	most pronounced	high potency	as effective as the combination of ZSTK474 and PD0325901	as effective as the combination of ZSTK474 and PD0325901	inhibited	inhibited	–	–
O=C(CNCCONC(=O)c1ccc(F)c(F)c1Nc1ccc(I)cc1F)NCCCCCC(=O)N1CCN(c2nc(N3CCOCC3)nc(-n3c(C(F)F)nc4ccccc43)n2)CC1 [Compound 7, N-(2-((2-((6-(4-(4-(2-(Difluoromethyl)-1H-benzo[d]imidazol-1-yl)-6-morpholino-1,3,5-triazin-2-yl)piperazin-1-yl)-6-oxohexyl)amino)-2-oxoethyl)amino)ethoxy)-3,4-difluoro-2-((2-fluoro-4-iodophenyl)amino)benzamide]	–	–	high potency	–	–	–	–	–	–
O=C(NOCCNCCCCCC(=O)N1CCN(c2nc(N3CCOCC3)nc(-n3c(C(F)F)nc4ccccc43)n2)CC1)c1ccc(F)c(F)c1Nc1ccc(I)cc1F [Compound 9, N-(2-((6-(4-(4-(2-(Difluoromethyl)-1H-benzo[d]imidazol-1-yl)-6-morpholino-1,3,5-triazin-2-yl)piperazin-1-yl)-6-oxohexyl)amino)ethoxy)-3,4-difluoro-2-((2-fluoro-4-iodophenyl)amino)benzamide]	most pronounced	most pronounced	high potency	as effective as the combination of ZSTK474 and PD0325901	as effective as the combination of ZSTK474 and PD0325901	–	–	modulation	modulation
